From patent US10344019B2 (priority 2010, dated 2019)
Where two headings read alike, the source gives them in different places.

What was measured:
Assay in all cases: microbe, parasite or virus in culture
Assay type in all cases: cell-based
[1] = system: HCV 1b RLuc cells (dicistronic genotype 1b Con1 replicon, RLuc reporter); details: Hepatitis C virus, read-out: 1b (nM)
Experimental: (§1) Evaluation of cell-based anti-HCV activity: Antiviral potency (EC50) was determined using a Renilla luciferase (RLuc)-based HCV replicon reporter assay. To perform the assay for genotype 1 and 2a JFH-1, HCV 1b RLuc cells (harboring a dicistronic genotype 1b Con1 replicon that encodes a RLuc reporter), or HCV 1a RLuc cells (harboring a dicistronic genotype 1a H77 replicon that encodes a RLuc reporter), or HCV 2a JFH-1 Rluc cells (harboring a dicistronic genotype 2a JFH-1 replicon that encodes a RLuc reporter) were dispensed into 384-well plates. To perform the assay for genotype 2a (with M31 present) or 2b, HCV 2a Rluc or 2b Rluc cells (both with M31 present) harboring a dicistronic NS5A chimeric genotype 2a JFH-1 replicon that encodes a RLuc reporter and either genotype 2a J6 strain NS5A gene or genotype 2b MD2b-1 NS5A gene (based on Los Alamos HCV database isolates, both with M31 present) respectively, were dispensed into 384-well plates. To perform the assay for genotype 3 and 4, HCV 3a RLuc or 4a Rluc cells harboring a dicistronic NS5A chimeric genotype 1b Con1 replicon that encodes a RLuc reporter and either a consensus genotype 3a NS5A gene or genotype 4a NS5A gene (based on Los Alamos HCV database isolates) respectively, were dispensed into 384-well plates. Compounds were re-suspended in DMSO at a concentration of 10 mM and serially diluted in DMSO either manually or using an automated pipeting instrument. Serially diluted compounds were mixed with cell culture media and added to the seeded cells. […] 72 hours later, cells were lysed and Renilla luciferase activity quantified as recommended by the manufacturer (Promega-Madison, Wis.). Non-linear regression was performed to calculate EC50 values.

[2] = system: HCV 3a RLuc cells (NS5A chimeric genotype 1b Con1 replicon with consensus genotype 3a NS5A gene); details: Hepatitis C virus
Experimental: as §1

[3] = system: HCV 2a JFH-1 Rluc cells (dicistronic genotype 2a JFH-1 replicon, RLuc reporter); details: Hepatitis C virus, genotype 2a JFH-1 replicon, read-out: 2a JFH
Experimental: as §1

[4] = system: HCV 1a RLuc cells (dicistronic genotype 1a H77 replicon, RLuc reporter); details: Hepatitis C virus, read-out: 1a
Experimental: as §1

[5] = system: HCV 4a Rluc cells (NS5A chimeric genotype 1b Con1 replicon with genotype 4a NS5A gene); details: Hepatitis C virus, read-out: 4a
Experimental: as §1

[6] = read-out: 3a, genotype 3a NS5A chimeric 1b Con1 replicon
[7] = genotype 1a H77 replicon, RLuc reporter
[8] = read-out: 3a, genotype 3a replicon
[9] = read-out: 3a, Table 1, genotype 3a NS5A chimeric replicon
[10] = 72 h, Table 1, genotype 1a H77 replicon, 72 hours
[11] = read-out: 3a, Table 2, genotype 3a NS5A chimeric replicon
[12] = 72 h, Table 2, genotype 1a H77 replicon, 72 hours

Structure (SMILES) | EC50 [1] [nM] | EC50 [2, 6] [nM] | EC50 ([3]; RLuc reporter) [nM] | EC50 [4, 7] [nM] | EC50 [5] [nM] | EC50 [2, 8] [nM] | EC50 [3] [nM] | EC50 ([4]; genotype 1a replicon) [nM] | EC50 ([1]; 72 h) [nM] | also measured
COC(=O)NC(C(=O)N1CCC[C@H]1c1ncc(-c2ccc3c(c2)C(F)(F)c2cc(-c4ccc(-c5cnc([C@@H]6CCCN6C(=O)[C@@H](NC(=O)OC)C6CCOCC6)[nH]5)cc4)ccc2-3)[nH]1)C1CCOCC1 (stereo partly drawn) [Example 202] | 0.017 | > 5 | 1 to 44 | 0.001 to 0.999 | 0.001 to 0.99 |  |  |  |  | 
COC(=O)N[C@H](C(=O)N1CCC[C@H]1c1ncc(-c2cc3c4c(c2)OCc2cc(-c5cnc([C@@H]6CCCN6C(=O)C(c6ccccc6)N(C)C)[nH]5)cc(c2-4)OC3)[nH]1)C(C)C (stereo partly drawn) [Example 307] | 0.091 |  |  |  | 0.001 to 0.99 | 0.001 to 0.99 | 0.001 to 0.999 | 0.001 to 0.999 |  | 
COC(=O)N[C@H](C(=O)N1CCC[C@H]1c1ncc(-c2ccc3c(c2)COc2c-3ccc3cc(-c4cnc([C@@H]5CCCN5C(=O)OCc5ccccc5)[nH]4)ccc23)[nH]1)C1CCOCC1 [Example 6] |  |  |  |  | 0.001 to 0.99 |  |  |  | 0.051 | EC50 [2, 9]: > 5 nM; EC50 ([3]; 72 h, Table 1, 72 hours): 1 to 44 nM; EC50 [4, 10]: 1 to 44 nM
COC(=O)N[C@H](C(=O)N1CCC[C@H]1c1nc2ccc3cc(-c4ccc5cc(-c6cnc([C@@H]7CCCN7C(=O)[C@H](NC(=O)OC)c7ccccc7)[nH]6)ccc5c4)ccc3c2[nH]1)[C@@H](C)OC [Example 271] | 0.008 | 0.001 to 0.99 | 0.001 to 0.999 | 0.001 to 0.999 | 0.001 to 0.99 |  |  |  |  | 
COC(=O)N[C@H](C(=O)N1CCC[C@H]1c1nc(Cl)c(-c2ccc(-c3ccc(-c4[nH]c([C@@H]5CCCN5C(=O)[C@@H](NC(=O)OC)C5CCOCC5)nc4Cl)cc3)cc2)[nH]1)C(C)C [Example 360] | 0.053 |  |  |  | 0.001 to 0.99 | 0.001 to 0.99 | 0.001 to 0.999 | 0.001 to 0.999 |  | 
COC(=O)NC(C(=O)N1CCC[C@H]1c1ncc(-c2ccc3c(c2)C(F)(F)c2cc(-c4ccc5nc([C@@H]6CCCN6C(=O)[C@@H](NC(=O)OC)[C@@H](C)OC)[nH]c5c4)ccc2-3)[nH]1)C(C)C (stereo partly drawn) [Example 264] | 0.006 | 1 to 4.99 | 1 to 44 | 0.001 to 0.999 | 0.001 to 0.99 |  |  |  |  | 
COC(=O)N[C@H](C(=O)N1CCC[C@H]1c1ncc(-c2ccc3c4ccc(-c5cnc([C@@H]6CCCN6C(=O)[C@@H](NC(=O)OC)[C@@H](C)OC)[nH]5)cc4c4ccccc4c3c2)[nH]1)[C@@H](C)OC [Example 310] | 0.041 |  |  |  | 0.001 to 0.99 | 0.001 to 0.99 | 0.001 to 0.999 | 0.001 to 0.999 |  | 
COC(=O)N[C@H](C(=O)N1CCC[C@H]1c1ncc(-c2ccc3c(c2)CCc2cc(-c4ccc5nc([C@@H]6[C@H]7CC[C@H](C7)N6C(=O)[C@H](NC(=O)OC)c6ccccc6)[nH]c5c4)ccc2-3)[nH]1)C1CCOCC1 [Example 78] |  |  |  |  | 0.001 to 0.99 |  |  |  | 0.013 | EC50 [2, 11]: 0.001 to 0.99 nM; EC50 ([3]; 72 h, Table 2, 72 hours): 0.001 to 0.999 nM; EC50 [4, 12]: 0.001 to 0.999 nM
COC(=O)N[C@H](C(=O)N1CCC[C@H]1c1ncc(-c2ccc3c4ccc(-c5cnc([C@@H]6CCCN6C(=O)[C@@H](NC(=O)OC)C(C)C)[nH]5)cc4c4nc5ccccc5nc4c3c2)[nH]1)C(C)C [Example 19] |  |  |  |  | 0.001 to 0.99 |  |  |  | 0.01 | EC50 [2, 9]: > 5 nM; EC50 ([3]; 72 h, Table 1, 72 hours): 1 to 44 nM; EC50 [4, 10]: 1 to 44 nM
COC(=O)N[C@H](C(=O)N1[C@@H]2CC[C@@H](C2)[C@H]1c1ncc(-c2ccc(-c3ccc(-c4cnc([C@@H]5C[C@H]6C[C@H]6N5C(=O)[C@@H](NC(=O)OC)C(C)C)[nH]4)cc3)cc2)[nH]1)C(C)C [Example 99] |  |  |  |  | 0.001 to 0.99 |  |  |  | 0.021 | EC50 [2, 11]: 1 to 4.99 nM; EC50 ([3]; 72 h, Table 2, 72 hours): 0.001 to 0.999 nM; EC50 [4, 12]: 0.001 to 0.999 nM
COC(=O)N[C@H](C(=O)N1CCC[C@H]1c1nc(-c2ccc3cc(-c4ccc(-c5cnc([C@@H]6CCCN6C(=O)[C@H](NC(=O)OC)c6ccccc6)[nH]5)cc4)sc3c2)c[nH]1)C(C)C [Example 253] | 0.005 | 0.001 to 0.99 | 0.001 to 0.999 | 0.001 to 0.999 | 0.001 to 0.99 |  |  |  |  | 
COC(=O)N[C@H](C(=O)N1CCC[C@H]1c1nc2ccc(-c3ccc4c(c3)C(F)(F)c3cc(-c5c[nH]c([C@@H]6CCCN6C(=O)[C@@H](NC(=O)OC)C6CCOCC6)n5)ccc3-4)cc2[nH]1)C(C)C [Example 219] | 0.008 | 1 to 4.99 | 0.001 to 0.999 | 0.001 to 0.999 | 0.001 to 0.99 |  |  |  |  | 
COC(=O)N[C@@H](C(=O)N1CCC[C@H]1c1ncc(-c2ccc3cc(-c4ccc5c(c4)CCc4nc([C@@H]6CCCN6C(=O)[C@@H](NC(=O)C6CC6)C6CCOCC6)[nH]c4-5)ccc3c2)[nH]1)c1ccccc1 [Example 280] | 0.047 | 0.001 to 0.99 | 1 to 44 | 1 to 44 | 0.001 to 0.99 |  |  |  |  | 
COC(=O)N[C@H](C(=O)N1CCC[C@H]1c1ncc(-c2ccc(-c3ccc(-c4cnc([C@@H]5[C@H]6CC[C@H](C6)N5C(=O)[C@@H](NC(=O)OC)C5CCOCC5)[nH]4)cc3)cc2)[nH]1)C(C)C [Example 61] |  |  |  |  | 0.001 to 0.99 |  |  |  | 0.087 | EC50 [2, 11]: 1 to 4.99 nM; EC50 ([3]; 72 h, Table 2, 72 hours): 0.001 to 0.999 nM; EC50 [4, 12]: 0.001 to 0.999 nM
COC(=O)N[C@H](C(=O)N1CCC[C@H]1c1ncc(-c2ccc3c(c2)C(F)(F)c2cc(-c4ccc5nc([C@@H]6[C@H]7CC[C@H](C7)N6C(=O)[C@H](NC(=O)OC)c6ccccc6)[nH]c5c4)ccc2-3)[nH]1)C1CCOCC1 [Example 56] |  |  |  |  | 0.001 to 0.99 |  |  |  | 0.01 | EC50 [2, 11]: 0.001 to 0.99 nM; EC50 ([3]; 72 h, Table 2, 72 hours): 0.001 to 0.999 nM; EC50 [4, 12]: 0.001 to 0.999 nM
COC(=O)N[C@H](C(=O)N1[C@@H]2C[C@@H]2C[C@H]1c1nc2ccc3cc(-c4ccc(-c5cnc([C@@H]6[C@H]7CC[C@H](C7)N6C(=O)[C@@H](NC(=O)OC)[C@@H](C)OC)[nH]5)cc4)ccc3c2[nH]1)C(C)C [Example 336] | 0.013 |  |  |  | 0.001 to 0.99 | 1 to 4.99 | 0.001 to 0.999 | 0.001 to 0.999 |  | 
COC(=O)N[C@H](C(=O)N1CC2(C[C@H]1c1ncc(-c3ccc4cc(-c5ccc(-c6cnc([C@@H]7CCCN7C(=O)[C@H](NC(=O)OC)c7ccccc7)[nH]6)cc5)ccc4c3)[nH]1)OCCO2)C(C)C [Example 43] |  |  |  |  | 0.001 to 0.99 |  |  |  | 0.009 | EC50 [2, 11]: 1 to 4.99 nM; EC50 ([3]; 72 h, Table 2, 72 hours): 0.001 to 0.999 nM; EC50 [4, 12]: 0.001 to 0.999 nM
COC(=O)NC(C(=O)N1CCC[C@H]1c1ncc(-c2ccc3c(c2)OCc2cc(-c4ccc5nc([C@@H]6[C@H]7CC[C@H](C7)N6C(=O)[C@H](NC(=O)OC)c6ccccc6)[nH]c5c4)ccc2-3)[nH]1)[C@@H](C)OC (stereo in doubt) [Example 294] | 0.01 |  |  |  | 0.001 to 0.99 | 0.001 to 0.99 | 0.001 to 0.999 | 0.001 to 0.999 |  | 
COC(=O)N[C@H](C(=O)N1CCC[C@H]1c1nc2ccc3cc(-c4csc5cc(-c6cnc([C@@H]7CCCN7C(=O)[C@H](NC(=O)OC)c7ccccc7)[nH]6)ccc45)ccc3c2[nH]1)C(C)C [Example 285] | 0.006 | 0.001 to 0.99 | 0.001 to 0.999 | 0.001 to 0.999 | 0.001 to 0.99 |  |  |  |  | 
COC(=O)N[C@H](C(=O)N1[C@@H]2CC[C@@H](C2)[C@H]1c1nc2ccc3cc(-c4ccc(-c5cnc([C@@H]6C[C@H]7C[C@H]7N6C(=O)[C@@H](NC(=O)OC)C6CCOCC6)[nH]5)cc4)ccc3c2[nH]1)C(C)C [Example 367] | 0.049 |  |  |  | 0.001 to 0.99 | 0.001 to 0.99 | 0.001 to 0.999 | 0.001 to 0.999 |  | 
COC(=O)N[C@H](C(=O)N1CCC[C@H]1c1ncc(-c2ccc3cc(-c4ccc5c(ccc6nc([C@@H]7[C@H]8CC[C@H](C8)N7C(=O)[C@H](NC(=O)OC)c7ccccc7)[nH]c65)c4)ccc3c2)[nH]1)[C@@H](C)OC [Example 328] | 0.008 |  |  |  | 0.001 to 0.99 | 1 to 4.99 | 0.001 to 0.999 | 0.001 to 0.999 |  | 
